Results taken from patent publication US20240139149A1, “THERAPEUTIC USES OF UROLITHIN DERIVATIVES” (Vandria SA, priority 2022, published 2024).

Key:
[1] = tested on: cortical neurons and microglial cells injured with Aβ1-42; experiment: Rat primary culture of cortical neurons and microglial cells injured with Aβ1-42; type: cell-based
Experimental: Pregnant female rat (Wistar) of 15 days of gestation were killed using a deep anesthesia with CO2 chamber and a cervical dislocation. Fetuses were collected and immediately placed in ice-cold L15 Leibovitz medium with a 2% penicillin (10,000 U/mL) and streptomycin (10 mg/mL) solution (PS) and 1% bovine serum albumin (BSA). Cortex were specifically dissected and then were treated for 20 min at 37° C. with a trypsin-EDTA solution at a final concentration of 0.05% trypsin and 0.02% EDTA. The dissociation was stopped by addition of Dulbecco's modified Eagle's medium (DMEM) with 4.5 g/L of glucose, containing DNAse I grade II (final concentration 0.5 mg/mL) and 10% fetal calf serum (FCS). Cells were mechanically dissociated by three forced passages through the tip of a 10-mL pipette. Cells were then centrifuged at 515×g for 10 min at 4° C. The supernatant was discarded, and the pellet was resuspended in a defined culture medium consisting of Neurobasal medium with a 2% solution of B27 supplement, 2 mmol/liter of L-glutamine, 2% of PS solution, 10 ng/mL of brain-derived neurotrophic factor (BDNF), 2% of heat-inactivated horse serum, 2% of heat-inactivated FCS, 1 g/L of glucose, 1 mM of sodium pyruvate, and 100 μM of non-essential amino acids. The presence of serum in the medium allows the growth of the microglial cells. Viable cells were counted in a Neubauer cytometer, using the trypan blue exclusion test.
The cells were seeded at a density of 45 000 per well in 96-well plate precoated with poly-L-lysine and were cultured at 37° C. in an air (95%)—CO2 (5%) incubator. The medium was changed every 2 days.
On day 11 of culture, the compounds were dissolved in the appropriate vehicle and pre-incubated with the primary cortical neurons for one hour (1 h), before Aβ1-42 exposure.
On day 11 of culture, the cortical neurons were injured with the AP 1-42 peptide. AP 1-42 peptide was dissolved in the defined culture medium mentioned above, at an initial concentration of 20 μM. The solution was gently agitated for 3 days at 37° C. in the dark and immediately used after being properly diluted in culture medium to the concentration used (5 μM, 0.5 μM oligomers precisely evaluated by automatic WB). The AP 1-42 solution was applied on the culture at […] (0.5 μM oligomers, AβO), in presence of the compound, for 72 hours.
72 hours after the application of Aβ, the cell culture supernatant was removed. Cells were then washed with phosphate-buffered saline (PBS) and fixed with a cold solution of ethanol (95%) and acetic acid (5%) for 5 min at −20° C. After two washing steps with cold PBS, cells permeabilized and unspecific binding sites were blocked with a solution of PBS containing 0.1% of saponin and 1% of FCS, for 15 min at RT. Cells were incubated for 2 hours with: • a) Monoclonal anti-MAP2 antibody produced in mouse at dilution of 1/400 in PBS containing 1% FCS, 0.1% saponin, for 2 hours at room temperature. • b) Rabbit polyclonal antibody anti-SIRP alpha/CD172a (OX-41) at dilution of 1/400 in PBS containing 1% fetal calf serum and 0.1% of saponin (this antibody stains specifically the microglia and will allow to evaluate the activation of the microglial cells).
For each condition, 30 pictures (representative of the whole well area) were automatically taken using ImageXpress® (Molecular Devices) at 20× magnification using the same acquisition parameters. From images, the analyses were automatically performed by MetaXpress® (Molecular Devices). The following read-outs were measured: • Total neuron survival (number of MAP-2(+) neurons), • Total length of neurite network of MAP-2(+) neurons (in μm) • Total area of activated microglia (area of OX-41 signal, in μm^2)
All values are expressed as mean+/−SEM (standard error of the mean). Statistical analysis was performed by one-way ANOVA followed by Fisher's LSD test, with GraphPad Prism. p<0.05 was considered significant.

mouse T lymphocytes = experiment: Proportion of mouse T memory stem cells (Tscm); type: cell-based; conditions: 2 μM, 72 h
Experimental: T cells were isolated and stimulated as described in Example 14.
Tscm represent a subset of minimally differentiated T cells, which share a CD44^loCD62L^hi phenotype with naïve T cells, but are phenotypically distinct by expressing high levels of Sca1 (Gattinoni et al., 2009). Tscm are therefore identified as CD44^−CD62L^+Sca1^hi cells.
Flow cytometry and analysis was performed as described in Example 14.

APTK-s.c. tumors = experiment: Subcutaneous APTK organoid tumors, UA diet, with TIL analysis; type: in vivo, mouse
Experimental: Urolithin A containing diet (2.28 g/kg) or AIN− 93G control food (Brogaarden) were given ad libitum once introduced for experimental purpose at the indicated time.
For subcutaneous colorectal cancers, APTK organoids were mechanistically disrupted, incubated with Accutase to generate a single cell suspension and reconstituted in PBS 20% Matrigel (Corning) for subcutaneous transplantation. Tumor sizes were measured at the indicated time after transplantation and tumor volume quantified as ½(width2×length). Urolithin A or control food regiment were initiated either one week before tumor challenge or 11 days after tumor development. Therapeutic diets were maintained throughout the experiment unless indicated otherwise.
Tumors were minced and digested with Tumor & Tissue Dissociation Reagent (BD Horizon) for 30 min. The remaining organ pieces were filtered through a 70 m cell strainer. Cells were then washed with PBS 1% BSA and 2 mM EDTA. Immune cells were enriched on a 30%/40%/75% Percoll gradient after a 1700 rpm 17 min centrifugation. Then, tumor immune filtrates or activated T cells were stained with Fixable Viability Dye-eF780 (65-0865-14; eBioscience), αCD45-FITC (30-F11; 11-0451-85; eBioscience), αCD11b-BV650 (M1/70; 56340; BD) α-CD11c-BV785 (HL3; 563735; BD), aLy6G-BV605 (53-6.7; 563005; BD), aLy6C-AF700 (HK1.4; 128024; Biolegend), aF4/80-PE (BM8; 12-4801-82, eBioscience), aPD-L1-PECy7 (MIH5; 25-5982-80, eBioscience); or with Fixable Viability Dye-eF780 (ebioscience), αCD45-BV786 (30-F11; 564225; BD), αCD4-BUV496 (GK1.5; 564667; BD), αCD8-BV605 (100744; Biolegend), aPD1-APC (J43; 17-9985-82; eBioscience), aTIM-3-PECy7 (RMT3-23; 119715; Biolegend), aCTLA4-PE (UC10-4B9; 106305; Biolegend) and aLag3-BV421 (C9B7W; 125221, Biolegend); or with Fixable Viability Dye-eF780 (eBioscience), αCD4-FITC (H129.19; 553650; BD), αCD8-APC (53-6.7; 17-0081-83; eBioscience), αCD44-AF400 (IM7; 103026; Biolegend), αCD62L-BV785 (MEL-14; 104440; Biolegend), αSca-1-PerCP-Cy5.5 (D7; 45-5981-82; eBioscience), αCD95-PE (Jo2; 554258; BD); or with Fixable Viability Dye-eF780 (eBioscience), αCD8-BV650 (53-6.7; 563234; BD), αCD4-BUV496 (GK1.5; 564667; BD), αCD127-APC (A7R34; 17-1271-82; eBioscience), αCD95-FITC (SA367H8;152605; Biolegend), αCD44-AF400 (IM7; 103026; Biolegend), αCD62L-BV785 (MEL-14; 104440; Biolegend), αSca-1-PerCP-Cy5.5 (D7; 45-5981-82; eBioscience) followed by intracellular staining of aTCF1-PE (S33-966; 564217; BD), or PGC-1α (sc-518025; D-5; santa cruz), or aCyclinD1 (MA5-28534, DCS-6; Invitrogen) with transcription factor buffer set kit (BD Biosciences). To study cytokine expression, tumor immune infiltrates were stimulated ex vivo with 20 ng/mL PMA and 1 g/mL Ionomycin (Sigma) for 3 h in T cell activation medium with Brefeldin A (Biolegend).

[2] = 123 and 370 nM, Aβ1-42 72 hours
[3] = C57BL/6 mice, s.c. APTK organoids, UA-supplemented diet

Structure (SMILES) | microglial activation (conclusion) [1] | neuroprotection in the inflammatory in vitro model (conclusion) [1] | neurite network of cortical neurons (MAP-2) [1, 2] | survival of cortical neurons (MAP-2) [1, 2] | microglial activation (OX-41) ([1]; between 41.1 nM and 370 nM, Aβ1-42 72 hours) | increase in the percentage of Tscm in CD8+ cells vs DMSO (mouse T lymphocytes) [%] | percentage of Tscm in CD8+ cells (mouse T lymphocytes; DMSO 16.7%) [%] | CD8+ T cell infiltration (APTK-s.c. tumors; [3]) | tumor growth (APTK-s.c. tumors; [3]) | tumor response in combination with PD-1 blockade (APTK-s.c. tumors; C57BL/6 mice, s.c. APTK tumors, UA diet plus α-PD-1) | tumor suppressive effect in Pink1−/− mice (APTK-s.c. tumors; Pink1−/− mice, s.c. APTK organoids, UA diet) | protective effect on tumor growth in Rag1−/− mice (APTK-s.c. tumors; Rag1−/− mice (no mature T and B cells), s.c. APTK organoids, UA diet) | CD4+ TSCM, dendritic cells, TAMs, MDSC subsets in tumors (APTK-s.c. tumors; UA diet vs control diet) | CD8+CD44loCD62LhiSca1hi T cells in APTK-induced tumors (APTK-s.c. tumors; UA diet vs control diet) | TCF1 expression in tumor infiltrating CD8+ T cells (APTK-s.c. tumors; UA diet vs control diet) | mitochondrial content in TIL of APTK tumors (APTK-s.c. tumors; UA diet vs control diet) | exhaustion markers PD-1, CTLA-4 and Tim3 in CD8+ T cells (APTK-s.c. tumors; UA-fed mice) | TNFα and IFNγ in tumor infiltrating CD8+ T cells (APTK-s.c. tumors; restimulated with PMA/ionomycin ex vivo)
O=c1oc2cc(O)ccc2c2ccc(OC3CCOCC3)cc12 [compound 33, 3-hydroxy-8-((tetrahydro-2H-pyran-4-yl)oxy)-6H-benzo[c]chromen-6-one] | significantly reduce | neuroprotective | significantly protect | significantly protect | significant decrease | 81 | 30.2 |  |  |  |  |  |  |  |  |  |  | 
O=c1oc2cc(O)ccc2c2ccc(O)cc12 [UA, Urolithin A] |  |  |  |  |  |  |  | enhanced | significantly reduced | sensitized APTK tumors to PD-1 blockade | abrogated the tumor suppressive effect | abrogated the protective effect | no change | marked increase | increased expression | increased mitochondrial content | reduction | stronger induction
